Results on 9 compounds are retold here after ChEMBL document CHEMBL1201862, “PubChem BioAssay data set” (2004).

Calls of active or inactive are those of the source.

Test [1] concerns the target T1, Nuclear receptor subfamily 0 group B member 1 (Homo sapiens, UniProt P51843).
T1 sequence (P51843 whole entry): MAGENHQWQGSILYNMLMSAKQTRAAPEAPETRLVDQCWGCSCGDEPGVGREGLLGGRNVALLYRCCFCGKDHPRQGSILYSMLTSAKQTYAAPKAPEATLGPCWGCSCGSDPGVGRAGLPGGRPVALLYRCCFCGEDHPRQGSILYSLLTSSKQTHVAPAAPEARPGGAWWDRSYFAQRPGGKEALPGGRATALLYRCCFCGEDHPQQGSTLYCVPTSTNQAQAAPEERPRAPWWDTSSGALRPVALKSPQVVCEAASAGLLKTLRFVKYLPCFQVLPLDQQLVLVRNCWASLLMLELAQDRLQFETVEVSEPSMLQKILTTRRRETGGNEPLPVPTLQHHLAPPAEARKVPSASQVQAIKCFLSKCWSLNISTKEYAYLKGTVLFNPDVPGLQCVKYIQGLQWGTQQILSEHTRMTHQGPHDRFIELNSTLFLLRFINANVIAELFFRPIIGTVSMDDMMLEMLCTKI
The test is described as follows: Luminescence-based cell-based high throughput dose response assay for inhibitors of the orphan nuclear receptor subfamily 0, group B, member 1 (DAX1; NR0B1). [Related pubchem assays (depositor defined):AID504766, AID504790]. The class given is functional.

The subject of test [2] is HEK293. The test is described as follows: cells. It is filed as functional, cell-based. To be noted: Homo sapiens.
For test [3], the target named is T2, Short transient receptor potential channel 4 (Mus musculus, UniProt Q9QUQ5).
T2 sequence (Q9QUQ5 whole entry): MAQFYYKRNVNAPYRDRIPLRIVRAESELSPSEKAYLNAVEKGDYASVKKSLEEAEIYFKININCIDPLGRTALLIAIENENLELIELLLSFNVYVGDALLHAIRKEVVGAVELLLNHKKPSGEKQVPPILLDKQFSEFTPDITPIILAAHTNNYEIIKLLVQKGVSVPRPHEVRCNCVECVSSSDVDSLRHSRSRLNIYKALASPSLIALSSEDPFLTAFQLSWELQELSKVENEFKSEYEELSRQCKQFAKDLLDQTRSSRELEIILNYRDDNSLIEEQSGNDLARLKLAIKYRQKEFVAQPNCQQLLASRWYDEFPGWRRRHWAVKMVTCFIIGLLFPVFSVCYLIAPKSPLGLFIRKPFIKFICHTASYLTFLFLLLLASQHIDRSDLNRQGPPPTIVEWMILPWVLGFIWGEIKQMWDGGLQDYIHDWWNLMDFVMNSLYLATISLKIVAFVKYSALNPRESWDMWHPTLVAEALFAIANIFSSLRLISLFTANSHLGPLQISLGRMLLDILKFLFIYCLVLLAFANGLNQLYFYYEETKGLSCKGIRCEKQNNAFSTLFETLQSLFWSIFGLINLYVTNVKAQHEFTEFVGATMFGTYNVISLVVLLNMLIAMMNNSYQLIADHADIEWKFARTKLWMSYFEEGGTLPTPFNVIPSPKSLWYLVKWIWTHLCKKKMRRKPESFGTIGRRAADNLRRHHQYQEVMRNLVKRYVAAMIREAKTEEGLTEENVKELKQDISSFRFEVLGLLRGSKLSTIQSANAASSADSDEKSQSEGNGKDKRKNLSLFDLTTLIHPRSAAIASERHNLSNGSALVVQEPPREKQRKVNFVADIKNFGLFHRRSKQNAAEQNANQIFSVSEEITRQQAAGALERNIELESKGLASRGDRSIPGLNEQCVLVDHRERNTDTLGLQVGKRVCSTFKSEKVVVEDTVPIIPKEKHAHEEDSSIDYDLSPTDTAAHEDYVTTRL
The test can be described thus: calcium entry via TRPC4 opening agents – cell-based, HEK293 TRPC4/mu-opioid, Fluo-4 calcium, dose response (AID 434937). The class given is functional.

Test [4] relates to HeLa. The test can be described thus: ATP-based viability loss in HeLa cells – cell-based, CellTiter-Glo luminescence, cherry-pick samples, cytotoxicity control for MITF activator project, dose response (AID 540259). The class given is functional. As to conditions: Homo sapiens.
The target in test [5] is T2, Short transient receptor potential channel 4. The test is described as follows: block of DAMGO-driven TRPC4 calcium entry – cell-based, HEK293 TRPC4/mu-opioid, Fluo-4 calcium, dose response (AID 434942).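 Note: potency of inhibitors blocking the TRPC4 calcium response.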 It is filed as functional.
Test [6] deals with Beta-2 adrenergic receptor (Homo sapiens, UniProt P07550). The test can be described thus: ADRB2 activation measured by internalization – cell-based, FAP fluorogen, flow cytometry, cherry pick 1, dose response (AID 588763). It is filed as functional. On the technique in general: Flow cytometry measures light scatter and fluorescence of single cells or particles in a stream.
Sequence of Beta-2 adrenergic receptor (P07550 whole entry): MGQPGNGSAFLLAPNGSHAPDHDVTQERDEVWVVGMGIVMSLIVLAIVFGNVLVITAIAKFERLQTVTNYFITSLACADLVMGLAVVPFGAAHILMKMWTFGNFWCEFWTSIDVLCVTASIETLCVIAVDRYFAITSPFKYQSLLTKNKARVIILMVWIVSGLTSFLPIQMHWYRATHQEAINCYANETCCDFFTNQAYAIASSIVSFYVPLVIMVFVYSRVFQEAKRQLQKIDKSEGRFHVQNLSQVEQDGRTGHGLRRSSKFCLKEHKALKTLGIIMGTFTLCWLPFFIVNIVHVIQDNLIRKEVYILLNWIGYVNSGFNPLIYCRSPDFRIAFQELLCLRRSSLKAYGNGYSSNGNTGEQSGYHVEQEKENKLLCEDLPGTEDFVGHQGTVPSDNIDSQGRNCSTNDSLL
Test [7] can be described thus: cells.
The target of test [8] is T3, Oxysterols receptor LXR-beta (Homo sapiens, UniProt P55055).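 Note: Cell-based luminescence dose-response assay of agonist activity at LXR, run as a confirmatory counterscreen to a daf-12 agonist screen; HEK293 cells with Gal4-LXR fusion and GAL4-driven luciferase reporter; agonist potency from rising luciferase signal of a Gal4-LXR reporter.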
T3 sequence (P55055 whole entry): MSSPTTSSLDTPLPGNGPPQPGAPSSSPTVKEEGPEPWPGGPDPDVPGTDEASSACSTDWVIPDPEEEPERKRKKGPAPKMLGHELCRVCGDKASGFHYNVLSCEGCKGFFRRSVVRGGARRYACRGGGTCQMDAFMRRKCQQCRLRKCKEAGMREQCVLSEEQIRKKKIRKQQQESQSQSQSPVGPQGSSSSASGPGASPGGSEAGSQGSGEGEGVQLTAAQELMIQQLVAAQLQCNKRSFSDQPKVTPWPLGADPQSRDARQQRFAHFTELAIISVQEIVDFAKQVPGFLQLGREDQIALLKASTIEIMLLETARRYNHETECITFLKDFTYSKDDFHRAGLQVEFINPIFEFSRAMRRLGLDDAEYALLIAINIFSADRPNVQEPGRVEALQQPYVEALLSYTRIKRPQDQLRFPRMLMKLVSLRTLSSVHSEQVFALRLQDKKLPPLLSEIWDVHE
It is filed as functional, cell-based.

Test [9] has as its target T4, Hexokinase HKDC1 (Homo sapiens, UniProt Q2TB90).
T4 sequence (Q2TB90 whole entry): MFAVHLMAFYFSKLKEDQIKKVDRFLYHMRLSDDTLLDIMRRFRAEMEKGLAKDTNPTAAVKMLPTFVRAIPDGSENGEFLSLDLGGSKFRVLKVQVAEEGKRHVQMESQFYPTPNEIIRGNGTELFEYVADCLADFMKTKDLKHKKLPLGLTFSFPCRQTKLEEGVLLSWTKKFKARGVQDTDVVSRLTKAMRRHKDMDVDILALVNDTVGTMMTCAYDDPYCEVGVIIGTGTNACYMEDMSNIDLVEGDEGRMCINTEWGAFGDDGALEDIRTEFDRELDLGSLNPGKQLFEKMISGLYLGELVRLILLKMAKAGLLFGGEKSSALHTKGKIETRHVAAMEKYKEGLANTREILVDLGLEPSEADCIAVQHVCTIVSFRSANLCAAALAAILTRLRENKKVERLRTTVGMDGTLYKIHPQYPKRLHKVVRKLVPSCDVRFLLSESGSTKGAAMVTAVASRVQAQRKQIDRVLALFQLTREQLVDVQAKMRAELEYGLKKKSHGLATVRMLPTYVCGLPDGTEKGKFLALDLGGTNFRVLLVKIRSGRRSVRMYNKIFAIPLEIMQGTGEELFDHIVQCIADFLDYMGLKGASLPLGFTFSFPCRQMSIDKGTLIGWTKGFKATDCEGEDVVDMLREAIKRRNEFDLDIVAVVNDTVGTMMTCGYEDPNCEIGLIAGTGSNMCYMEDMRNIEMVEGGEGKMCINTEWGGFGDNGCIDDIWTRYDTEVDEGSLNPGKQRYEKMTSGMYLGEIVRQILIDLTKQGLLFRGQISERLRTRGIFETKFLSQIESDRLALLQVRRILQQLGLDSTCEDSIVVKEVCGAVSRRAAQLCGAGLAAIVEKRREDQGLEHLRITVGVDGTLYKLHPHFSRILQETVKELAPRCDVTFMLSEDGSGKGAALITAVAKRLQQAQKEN
The test is described as follows: analog inhibition of human HKDC1 activity – biochemical, set 2, SAR follow-up (AID 588355). It is filed as functional.

For test [10], the target named is T5, Hexokinase-1 (Homo sapiens, UniProt P19367).
T5 sequence (P19367 whole entry): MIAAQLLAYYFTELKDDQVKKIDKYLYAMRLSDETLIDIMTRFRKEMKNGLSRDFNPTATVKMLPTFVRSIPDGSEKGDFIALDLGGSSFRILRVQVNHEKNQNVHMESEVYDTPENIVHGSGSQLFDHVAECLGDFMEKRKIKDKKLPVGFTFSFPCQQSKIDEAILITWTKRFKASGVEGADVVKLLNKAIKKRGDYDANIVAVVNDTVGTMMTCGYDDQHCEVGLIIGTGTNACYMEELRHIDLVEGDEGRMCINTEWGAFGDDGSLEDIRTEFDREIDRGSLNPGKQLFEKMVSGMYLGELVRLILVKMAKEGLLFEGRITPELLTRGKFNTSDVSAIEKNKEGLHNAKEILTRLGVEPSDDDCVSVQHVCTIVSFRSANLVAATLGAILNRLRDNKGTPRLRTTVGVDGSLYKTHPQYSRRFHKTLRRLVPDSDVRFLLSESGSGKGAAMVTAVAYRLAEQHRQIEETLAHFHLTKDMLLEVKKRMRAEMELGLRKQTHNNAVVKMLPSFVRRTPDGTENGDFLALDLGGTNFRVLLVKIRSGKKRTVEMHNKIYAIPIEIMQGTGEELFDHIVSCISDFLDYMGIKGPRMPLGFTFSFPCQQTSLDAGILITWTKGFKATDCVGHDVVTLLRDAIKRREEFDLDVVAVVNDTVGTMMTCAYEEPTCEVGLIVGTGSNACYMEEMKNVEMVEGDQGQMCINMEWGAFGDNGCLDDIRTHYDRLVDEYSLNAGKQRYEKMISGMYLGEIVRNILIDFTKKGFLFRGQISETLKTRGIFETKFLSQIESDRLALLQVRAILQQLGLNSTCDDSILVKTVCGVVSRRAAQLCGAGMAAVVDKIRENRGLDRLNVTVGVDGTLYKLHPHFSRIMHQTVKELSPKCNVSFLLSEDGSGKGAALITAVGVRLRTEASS
The test is described as follows: hexokinase 1 activity inhibitors, potency – biochemical, set 2, resazurin fluorescence coupled readout, selectivity assay for HKDC1 inhibitor project, SAR follow-up (AID 588356). The class given is functional.

Test [11] in a line: Luminescence Cell-Based Dose Response HTS to Identify Activators of Luciferase Translation or Activity in H4 […] Cells. [Related pubchem assays: 1829 (Project Summary), 1814 (Primary HTS)]. It is filed as functional.
The nature of test [12]: Luminescence Cell-Based Dose Response to Identify Activators of Luciferase Translation or Activity in H4-C Neuroglioblastoma Cells. [Related pubchem assays: 1829 (Project Summary), 1814 (Primary HTS)]. The class given is functional.
The nature of test [13]: Luminescence Cell-Based Dose Confirmation to Identify Activators of 5'UTR Stem-Loop Driven Alpha-Synuclein mRNA Translation in H4 Neuroglioblastoma Cells. [Related pubchem assays: 1829 (Project Summary), 1814 (Primary HTS)]. It is filed as functional.
Test [14] can be described thus: Luminescence Cell-Based Dose Response to Identify Activators of 5'UTR Stem-Loop Driven Prion Protein mRNA Translation in H4-C Neuroglioblastoma Cells. [Related pubchem assays: 1829 (Project Summary), 1814 (Primary HTS)]. The class given is functional.
Test [15] concerns H4. The test is described as follows: Luminescence Cell-Based Dose Response HTS to Identify Activators of 5'UTR Stem-Loop Driven Prion Protein mRNA Translation in H4 Neuroglioblastoma Cells. [Related pubchem assays: 1829 (Project Summary), 1814 (Primary HTS)]. It is filed as functional. As to conditions: Homo sapiens.
Test [16] can be described thus: cells. The source holds these as a separate data set.
Test [17] concerns Vero. The test can be described thus: cells. To be noted: Chlorocebus sabaeus. It is filed as functional.
A short description of test [18]: viability of uninfected HEp-2 cells – cell-based, HTS, cytotoxicity control for RSV inhibitor project, dose response (AID 2410). It is filed as functional. As to conditions: human respiratory syncytial virus.
The test system of test [19] is Vero. The test can be described thus: cells. The class given is functional, cell-based. To be noted: Chlorocebus sabaeus.
Test [20] concerns the target Dual specificity tyrosine-phosphorylation-regulated kinase 1A (Rattus norvegicus, UniProt Q63470). It is filed as biochemical, Homo sapiens.

By IC50 is commonly meant the midpoint of a concentration-inhibition curve. As for `O=c1cc(-c2ccccc2)oc2ccc(O)cc12` [6-HYDROXYFLAVONE], the IC50 in test [1] and in test [2] was > 67.6 µM (inactive) in each case.

The EC50 is the concentration giving half of the maximal effect. What is called AC50 is the midpoint of the concentration-response curve, whichever way the signal moves. Consider `CN(C)C(CNC(=O)c1cc2ccccc2oc1=O)c1ccccc1` (stereo not given), for which the concentration for a half-maximal effect (EC50) in [3] is 0.299 µM (active); in [5] it was 0.149 µM (active). Besides, in test [4], the AC50 was 240 µM (active).

As for `Cn1c(=N)n(CC(=O)c2ccc(Br)cc2)c2ccccc21`, the EC50 was 15.6 µM (inactive) in [6], > 67.5 µM (inactive) in [7] and > 67.5 µM (inactive) in [8].

In the case of `O=c1c2cc(F)ccc2nc(/C=C/c2cccnc2)n1Cc1ccccc1`, the IC50 in [9] and in [10] was > 80 µM (inactive) throughout.

In the case of `COc1ccccc1OCc1cc(-c2ccccc2)no1`, the concentration at half-maximal activity (AC50) in [4] is 48 µM (active).

As to `CC(C)c1cc(C(=O)NCCc2ccccc2)no1`, the concentration giving a half-maximal response (EC50) in test [11] is < 0.1 µM (inconclusive); in test [12] it was 0.375 µM (active); in [13], 1.06 µM (active); in test [14] it was 1.54 µM (active); in [15] it was 7.28 µM (active). The IC50 in test [1] and in test [2] was > 67.5 µM (inactive) in each case.

Broadly, the CC50 is the concentration that lowers cell viability or growth by half. As for `COc1cccc(NC(=O)[C@H](Cc2c[nH]c3ccccc23)NC(=O)[C@@H]2Cc3ccccc3CN2)c1`, the IC50 in test [16] is 7.96 µM (active); in [19], 9.61 µM (active). Besides, the CC50 in [17] was > 25 µM (active); in [18] it was 17.1 µM (active).

Consider `Cc1ccccc1N1C(=O)c2ccccc2C1Nc1ccc(F)cc1` (stereo not given), for which the IC50 in [9] and in test [10] was > 80 µM (inactive) throughout.

With `COc1ccc(O)c(-c2cc(-c3ccccc3Cl)n[nH]2)c1`, the AC50 in [20] was 2.77 µM (active).
